For 26 compounds, melting point results are on record in a melting point compilation (Tetko et al.; mined from patent text by program, amines drawn as free bases though some values may be those of a salt).

One may read the melting point as the temperature of the solid-liquid transition. `Cc1ccc(C(O)(c2ccc(C)cc2)C2CCN(CCCC(O)c3ccc(C(C)(C)C(=O)O)cc3)CC2)cc1` (stereo unspecified) gave a melting point of 208 to 215 °C.

On to `O=C1NC(=O)C2(CC(O)c3ccc(F)cc32)N1` (stereo unspecified), for which the melting point lay within 209 to 211 °C.

Take `O[C@H](COc1cccc2[nH]ccc12)CN1CCC(c2c[nH]c3c(Cl)cccc23)CC1`: the melting point lay within 186 to 189 °C.

As to `C[C@@H](CO)CCC[C@@H](C)[C@H]1C(=O)C[C@H]2[C@@H]3CC=C4C[C@@H](O)CC[C@]4(C)[C@H]3CC[C@]12C`, the melting point is 167 to 169 °C.

For the compound `Cc1oc(-c2ccccc2)nc1COc1cccc(CCCC2SC(=O)NC2=O)c1` (stereo unspecified), the melting point was in the range of 123 to 124 °C.

Take `O=C(Nc1ccc(Oc2ccnc(NC3CC3)n2)c2ccccc12)c1cc(F)cc(N2CCCCC2)c1`: the melting point fell in the range of 157 to 158 °C.

In turn, `CC1Cc2cc3c(cc2C(c2ccc([N+](=O)[O-])cc2)=NN1C1=NCCO1)OCO3` (stereo unspecified) had a melting point of 194 to 196 °C.

With `O=C(c1ccccc1)c1[nH]c2cc(Cl)ccc2c1CC(=O)N1CCOCC1`, the melting point lay within 188 to 190 °C.

Consider `O=C(NCCn1c2ccccc2c(=O)c2ccccc21)OCc1ccccc1`, for which the melting point fell in the range of 224 to 226 °C.

`O=C1CCC(c2ccc(-n3cccc3)cc2)=NN1` came in with a melting point of 222 to 223 °C.

Consider `CCCCCCCCSc1ccc(CC(COC(C)=O)(COC(C)=O)NC(C)=O)cc1`, for which the melting point fell in the range of 71 to 74 °C.

In the case of `S=C(NCc1cccc2ccccc12)N1CCc2c([nH]c3ccccc23)C1c1ccc2c(c1)OCO2` (stereo unspecified), the melting point fell in the range of 111 to 113 °C.

`CC1(C)NCC(O)(c2ccccc2)CN1` returned a melting point of 108 °C.

`COC(=O)c1ccc(S(C)(=O)=O)c(C(=O)NN)c1Cl` showed a melting point of 85 to 95 °C.

`OC1CSC(Oc2ccc(-c3cncc(F)c3)nc2)C(O)C1O` (stereo unspecified): the melting point fell in the range of 207 to 217 °C.

`Nc1cccc(-c2cccc(-c3ccnc4c(C(=O)c5cccs5)cnn34)c2)c1` came in with a melting point of 117 to 121 °C.

In turn, `N#CC(=Cc1ccc(CBr)cc1)S(=O)(=O)c1ccccc1` displayed a melting point of 120 to 122 °C.

Regarding `O=[N+]([O-])c1cc2c(c3ccc(S(=O)(=O)NCCO)cc13)C(CCl)CN2` (stereo unspecified), the melting point is 173 to 174 °C.

In turn, `O=C(CN1CCSCC1)N1CCN(Cc2ccc3c(c2)-c2[nH]nc(-c4ccsc4)c2C3)CC1` yielded a melting point of 226 to 228 °C.

The compound `CC(=O)NCCCCCCOc1ccccc1C(=O)Nc1ccc(C(=O)N2CCCCc3ccccc32)cc1` showed a melting point of 171 to 172 °C.

Take `CC1=C(CC2=NCCN2C)CCc2ccccc21`: the melting point is 162 to 164 °C.

Turning to `CCOCc1nc2c(N)nc(C)c(C)c2n1CCNC(=O)C(C)C`, the melting point was 172 to 174 °C.

With `COC(=O)c1cc(C(=O)O)cc(-c2cc(Cl)ccc2Cl)c1`, the melting point was 222 to 224 °C.

Compound `COC(=O)c1cc(-n2cnc(Br)c2)c(C(F)(F)F)cc1N` yielded a melting point of 163 to 165 °C.

As to `COC(=O)c1cc(Br)cc(I)c1`, the melting point was in the range of 55 to 57 °C.

Compound `Cc1ccc(-c2[nH]c(-c3cccnc3)nc2C(=O)O)cc1` returned a melting point of 140 to 142 °C.
